# From patent US6713486B1, “Antiviral 2,4-pyrimidinedione derivatives and process for the preparation thereof” (Korea Research Institute of Chemical Technology, priority 1999, dated 2004)
# Like-named read-outs stand apart in the source and are kept apart here.
# How the values were obtained:
# HIV-1 = settings: for ED50: Effective concentration for the inhibition of the proliferation of HIV-1 by 50%: HIV-1 infected MT-4 cells, MTT; for S.I. Selectivity index (CD50/ED50): CD50/ED50, MT-4 cells
# Source text: First, MT-4 cells were suspended in a culture medium at a concentration of 1×10^4 cells/ml and infected with 500 TCID50 (50% cell culture infective dose)/well of HIV-1.
# MT-4 cells = settings: mock-infected MT-4 cells, MTT
# Y181C HIV-1 mutant [1] = settings: read-out: EC50: Effective concentration for the inhibition of the proliferation of mutant HIV-1 by 50%; Y181C mutant HIV-1; Reference: J. Med. Chem., 42, 4500 (1999); cited from earlier work
# Y181C HIV-1 mutant [2] = assay: Antiviral activity against mutant HIV-1 (Y181C) by the MTT method; type: cell-based; settings: read-out: EC50: Effective concentration for the inhibition of the proliferation of mutant HIV-1 by 50%; Y181C mutant HIV-1, MTT
# Experimental: Antiviral activities of the inventive compounds were determined against Y181C which is representative HIV-1 mutant having high resistance against anti-HIV-1 nonnucleosides, e.g., Nevirapine, by the MTT method. MKC-442 was employed as a comparative compound.
Structure (SMILES),ED50: Effective concentration for the inhibition of the proliferation of HIV-1 by 50% (HIV-1) [ng/mL],CD50: Cytotoxic concentration that causes death of MT-4 cells by 50% (MT-4 cells) [µg/mL],S.I. Selectivity index (CD50/ED50) (HIV-1),EC50 (Y181C HIV-1 mutant [1]) [µM],EC50 (Y181C HIV-1 mutant [2]) [µM]
"Cc1cc(C)cc(C(=O)c2c(C(C)C)c(=O)[nH]c(=O)n2Cc2ccncc2C(N)=O)c1 [Compound 79, 1-(3′-Carbamoyl-4′-picolyl)-5-isopropyl-6-(3′,5′-dimethylbenzoyl)-2,4-pyrimidinedione]",9.1,>100,,,
"COC(=O)c1cnccc1Cn1c(C(=O)c2cc(C)cc(C)c2)c(C(C)C)c(=O)[nH]c1=O [Compound 78, 1-(3′-Methoxycarbonyl-4′-picolyl)-5-isopropyl-6-(31,51-dimethylbenzoyl)-2,4-pyrimidinedione]",7.5,40.79,,,
"Cc1cc(C)cc(C(=O)c2c(C(C)C)c(=O)[nH]c(=O)n2Cc2cc[n+]([O-])cc2)c1 [Compound 68, 1-(N-oxo-4′-Picolyl)-5-isopropyl-6-(3′,5′-dimethylbenzoyl)-2,4-pyrimidinedione]",14.5,56.9,,,
"Cc1cc(C)cc(C(=O)c2c(C(C)C)c(=O)[nH]c(=O)n2Cc2c(C)c[n+]([O-])cc2C)c1 [Compound 70, 1-(N-oxo-3′, 5-Dimethyl-4′-picolyl)-5-Isopropyl-6-(3′, 5′-dimethylbenzoyl)-2,4-Pyrimidinedione]",5.5,25.84,,,
Cc1cc(C)cc(C(=O)c2c(C(C)C)c(=O)[nH]c(=O)n2Cc2cc(F)cc(F)c2)c1 [Compound 43],3.5,7.16,,,
"Cc1cc(C)cc(C(=O)c2c(C(C)C)c(=O)[nH]c(=O)n2Cc2cccnc2)c1 [Compound 2, 1-(3′-Picolyl)-5-isopropyl-6-(3′, 5′-dimethylbenzoyl)-2,4-pyrimidinedione]",3.6,27.2,,,
"Cc1cc(C)cc(Nc2c(C(C)C)c(=O)[nH]c(=O)n2Cc2ccncc2)c1 [Compound 66, 1-(4′-Picolyl)-5-isopropyl-6-(3′, 5′-dimethylphenylamino)-2,4-pyrimidinedione]",80,>100,,,
"Cc1cc(C)cc(C(=O)c2c(C(C)C)c(=O)[nH]c(=O)n2Cc2cc[n+]([O-])cc2C)c1 [Compound 69, 1-(N-oxo-3′-Methyl-4′-picolyl)-5-isopropyl-6-(3′, 5′-dimethylbenzoyl)-2,4-pyrimidinedione]",12.5,48.25,,,
Cc1cc(Cl)cc(Cn2c(C(=O)c3cc(C)cc(C)c3)c(C(C)C)c(=O)[nH]c2=O)c1 [Compound 40],34.8,7.97,,,
"Cc1cc(C)cc(C(=O)c2c(C(C)C)c(=O)[nH]c(=O)n2Cc2ccccn2)c1 [Compound 3, 1-(2′-Picolyl)-5-isopropyl-6-(3′, 5′-dimethylbenzoyl)-2,4-pyrimidinedione]",5.5,26.1,,,
"CC(=O)OCc1cncc(C)c1Cn1c(C(=O)c2cc(C)cc(C)c2)c(C(C)C)c(=O)[nH]c1=O [Compound 73, 1-(3′-Acetoxymethyl-5′-methyl-4′-picolyl)-5-isopropyl-6-(3′,5′-dimethylbenzoyl)-2,4-pyrimidinedione]",6.7,39.65,,,
Cc1cc(C)cc(C(=O)c2c(C(C)C)c(=O)[nH]c(=O)n2Cc2cc(C(F)(F)F)cc(C(F)(F)F)c2)c1 [Compound 44],1800,8.17,,,
"CCOCn1c(Cc2ccccc2)c(C(C)C)c(=O)[nH]c1=O [MKC-442, 6-benzyl-1-ethoxymethyl-5-isopropyluracil, reference compound]",5,,"5,544",13.4,
"CC(=O)OCc1cnccc1Cn1c(C(=O)c2cc(C)cc(C)c2)c(C(C)C)c(=O)[nH]c1=O [Compound 72, 1-(3′-Acetoxymethyl-4′-picolyl)-5-Isopropyl-6-(3′,5′-dimethylbenzoyl)-2,4-pyrimidinedione]",8.8,38.49,,,
"Cc1cc(C)cc(C(=O)c2c(C(C)C)c(=O)[nH]c(=O)n2Cc2ccncc2)c1 [Compound 1, 1-(4′-Picolyl)-5-isopropyl-6-(3′,5′-dimethylbenzoyl)-2,4-pyrimidinedione]",2.6,22.6,,,0.005 to 0.014
"Cc1cc(Cl)cc(C(=O)c2c(C(C)C)c(=O)[nH]c(=O)n2Cc2c(C)c[n+]([O-])cc2C)c1 [Compound 71, 1-(N-oxo-3′,5′-Dimethyl-4′-picolyl)-5-isopropyl-6-(3′,-chloro-5-methylbenzoyl)-2,4-pyrimidinedione]",8.2,25.44,,,
"Cc1cc(C)cc(C(=O)c2c(C(C)C)c(=O)[nH]c(=O)n2Cc2c(C)cncc2CO)c1 [Compound 76, 1-(3′-Hydroxymethyl-5′-methyl-4′-picolyl)-5-isopropyl-6-(3′, 5′-dimethylbenzoyl)-2,4-pyrimidinedione]",8.4,38.39,,,
"CCc1c(Nc2cc(C)cc(C)c2)n(Cc2ccncc2)c(=O)[nH]c1=O [Compound 67, 1-(4′-Picolyl)-5-ethyl-6-(3′, 5′-dimethylphenylamino)-2,4-pyrimidinedione]",420,54.5,,,
"Cc1cc(Cl)cc(C(=O)c2c(C(C)C)c(=O)[nH]c(=O)n2Cc2ccncc2C(N)=O)c1 [Compound 80, 1-(3′-Carbamoyl-4′-picolyl)-5-isopropyl-6-(3′-chloro-5′-methylbenzoyl)-2,4-pyrimidinedione]",11.1,27.83,,,
"Cc1cc(C)cc(C(=O)c2c(C(C)C)c(=O)[nH]c(=O)n2Cc2ccncc2CO)c1 [Compound 75, 1-(3′-Hydroxymethyl-4′-picolyl)-5-isopropyl-6-(3′,5′-dimethylbenzoyl)-2,4-pyrimidinedione]",3.1,42.06,,,
"Cc1cc(Cl)cc(C(=O)c2c(C(C)C)c(=O)[nH]c(=O)n2Cc2c(C)cncc2CO)c1 [Compound 77, 1-(3′-Hydroxymethyl-5′-methyl-4′-picolyl)-5-isopropyl-6-(3′-chloro-5′-methylbenzoyl)-2,4-pyrimidinedione]",11.5,23.51,,,
"Cc1cc(C)cc(C(=O)c2c(C(C)C)c(=O)[nH]c(=O)n2Cc2ccc(N)cc2)c1 [Compound 81, 1-(4′-Aminobenzyl)-5-isopropyl-6-(3′,5′-dimethylbenzoyl)-2,4-pyrimidinedione]",15,9.63,648,,
